{
  "source": "ChEMBL document CHEMBL1201862",
  "about": "“PubChem BioAssay data set” (2004)",
  "key": {"[1]": {"target": "cGMP-dependent protein kinase 1 (Homo sapiens, UniProt Q13976)", "format": "functional"}, "[2]": {"target": "Serine/threonine-protein kinase Chk1 (Homo sapiens, UniProt O14757)", "format": "functional"}, "[3]": {"target": "Cyclin-dependent kinase 2 (Homo sapiens, UniProt P24941)", "format": "functional"}, "[4]": {"target": "Insulin-like growth factor 1 receptor (Homo sapiens, UniProt P08069)", "experiment": "Navigating the Kinome. Panel member name: IGF1R", "format": "functional"}, "[5]": {"target": "Tyrosine-protein kinase ITK/TSK (Homo sapiens, UniProt Q08881)", "format": "functional"}, "[6]": {"target": "Casein kinase I isoform alpha (Homo sapiens, UniProt P48729)", "format": "functional"}, "[7]": {"target": "Protein kinase C zeta type (Homo sapiens, UniProt Q05513)", "format": "functional"}, "[8]": {"target": "Macrophage colony-stimulating factor 1 receptor (Homo sapiens, UniProt P07333)", "sequence (P07333 whole entry)": "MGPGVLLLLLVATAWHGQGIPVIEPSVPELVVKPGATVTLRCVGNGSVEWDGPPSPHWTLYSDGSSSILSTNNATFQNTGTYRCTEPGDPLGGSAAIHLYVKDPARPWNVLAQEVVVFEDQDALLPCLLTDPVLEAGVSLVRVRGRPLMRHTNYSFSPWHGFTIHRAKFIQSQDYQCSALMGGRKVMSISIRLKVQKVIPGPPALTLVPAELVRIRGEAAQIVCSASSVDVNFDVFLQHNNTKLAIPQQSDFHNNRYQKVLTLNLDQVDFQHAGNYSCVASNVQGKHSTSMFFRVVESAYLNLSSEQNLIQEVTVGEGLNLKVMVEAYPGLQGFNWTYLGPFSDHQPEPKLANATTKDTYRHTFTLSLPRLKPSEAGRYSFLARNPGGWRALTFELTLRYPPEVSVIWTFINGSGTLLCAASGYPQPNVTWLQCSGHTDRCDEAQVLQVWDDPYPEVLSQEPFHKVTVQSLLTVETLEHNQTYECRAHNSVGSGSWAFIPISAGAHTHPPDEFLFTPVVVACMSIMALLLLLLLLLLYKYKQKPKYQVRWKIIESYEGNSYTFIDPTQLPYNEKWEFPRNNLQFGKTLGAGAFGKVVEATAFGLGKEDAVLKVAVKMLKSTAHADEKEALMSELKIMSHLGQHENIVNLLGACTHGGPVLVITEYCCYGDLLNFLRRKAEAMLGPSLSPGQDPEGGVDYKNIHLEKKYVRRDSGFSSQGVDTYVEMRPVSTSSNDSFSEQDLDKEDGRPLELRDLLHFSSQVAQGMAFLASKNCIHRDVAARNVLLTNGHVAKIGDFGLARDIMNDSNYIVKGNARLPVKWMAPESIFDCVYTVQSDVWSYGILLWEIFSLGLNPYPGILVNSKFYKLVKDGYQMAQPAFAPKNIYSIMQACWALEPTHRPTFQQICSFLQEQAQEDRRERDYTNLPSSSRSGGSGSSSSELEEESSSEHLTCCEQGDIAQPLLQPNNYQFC", "format": "functional"}, "[9]": {"target": "Protein-tyrosine kinase 6 (Homo sapiens, UniProt Q13882)", "sequence (Q13882 whole entry)": "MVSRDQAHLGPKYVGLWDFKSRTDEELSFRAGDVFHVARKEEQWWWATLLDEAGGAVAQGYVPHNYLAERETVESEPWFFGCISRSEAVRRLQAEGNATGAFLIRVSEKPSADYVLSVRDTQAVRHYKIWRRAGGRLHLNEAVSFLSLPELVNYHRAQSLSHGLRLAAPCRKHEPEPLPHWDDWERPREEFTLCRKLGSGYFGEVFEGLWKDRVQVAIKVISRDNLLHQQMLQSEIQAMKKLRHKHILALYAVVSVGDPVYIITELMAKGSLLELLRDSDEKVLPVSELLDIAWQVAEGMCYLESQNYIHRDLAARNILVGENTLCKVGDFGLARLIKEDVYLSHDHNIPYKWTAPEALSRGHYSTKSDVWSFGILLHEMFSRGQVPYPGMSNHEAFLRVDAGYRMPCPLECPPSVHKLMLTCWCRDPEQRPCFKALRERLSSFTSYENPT", "format": "functional"}, "[10]": {"target": "Tyrosine-protein kinase Fer (Homo sapiens, UniProt P16591)", "format": "functional"}, "[11]": {"target": "Mitogen-activated protein kinase kinase kinase kinase 4 (Homo sapiens, UniProt O95819)", "sequence (O95819 whole entry)": "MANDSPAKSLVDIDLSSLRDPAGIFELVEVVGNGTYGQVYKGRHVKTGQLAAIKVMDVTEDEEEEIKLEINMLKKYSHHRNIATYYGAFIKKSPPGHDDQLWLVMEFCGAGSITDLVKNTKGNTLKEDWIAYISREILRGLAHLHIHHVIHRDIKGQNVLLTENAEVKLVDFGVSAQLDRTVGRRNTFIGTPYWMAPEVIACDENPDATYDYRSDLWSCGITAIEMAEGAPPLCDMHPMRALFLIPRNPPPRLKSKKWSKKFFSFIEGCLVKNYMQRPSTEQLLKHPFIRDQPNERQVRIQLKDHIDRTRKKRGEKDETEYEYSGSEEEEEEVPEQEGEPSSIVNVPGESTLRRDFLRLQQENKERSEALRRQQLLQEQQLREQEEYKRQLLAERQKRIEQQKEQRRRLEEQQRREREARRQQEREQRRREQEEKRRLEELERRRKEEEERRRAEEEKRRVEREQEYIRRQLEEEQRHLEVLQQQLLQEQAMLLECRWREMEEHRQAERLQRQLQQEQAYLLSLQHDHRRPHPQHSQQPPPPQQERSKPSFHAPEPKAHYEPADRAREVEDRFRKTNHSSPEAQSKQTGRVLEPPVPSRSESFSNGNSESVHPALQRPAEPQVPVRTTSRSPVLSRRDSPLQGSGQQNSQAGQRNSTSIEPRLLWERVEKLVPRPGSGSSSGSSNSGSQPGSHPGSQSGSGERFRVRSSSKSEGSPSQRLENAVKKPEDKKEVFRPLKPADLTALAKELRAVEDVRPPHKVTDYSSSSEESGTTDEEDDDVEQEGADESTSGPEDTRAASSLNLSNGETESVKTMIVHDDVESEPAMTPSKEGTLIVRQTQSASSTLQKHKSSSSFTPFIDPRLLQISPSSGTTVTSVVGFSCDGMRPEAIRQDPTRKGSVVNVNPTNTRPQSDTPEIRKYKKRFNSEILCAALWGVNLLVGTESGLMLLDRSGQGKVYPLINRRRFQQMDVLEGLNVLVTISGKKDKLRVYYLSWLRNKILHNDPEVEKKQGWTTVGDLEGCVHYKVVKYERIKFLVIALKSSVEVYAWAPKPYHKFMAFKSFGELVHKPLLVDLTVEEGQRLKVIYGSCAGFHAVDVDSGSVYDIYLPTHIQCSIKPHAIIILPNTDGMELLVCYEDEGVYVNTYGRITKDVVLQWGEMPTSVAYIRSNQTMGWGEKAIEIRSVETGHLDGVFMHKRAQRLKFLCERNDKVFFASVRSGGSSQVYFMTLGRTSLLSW", "format": "functional"}, "SRSF protein kinase 1": {"target": "SRSF protein kinase 1 (Homo sapiens, UniProt Q96SB4)", "format": "functional"}, "[12]": {"target": "MAP kinase-activated protein kinase 2 (Homo sapiens, UniProt P49137)", "sequence (P49137 whole entry)": "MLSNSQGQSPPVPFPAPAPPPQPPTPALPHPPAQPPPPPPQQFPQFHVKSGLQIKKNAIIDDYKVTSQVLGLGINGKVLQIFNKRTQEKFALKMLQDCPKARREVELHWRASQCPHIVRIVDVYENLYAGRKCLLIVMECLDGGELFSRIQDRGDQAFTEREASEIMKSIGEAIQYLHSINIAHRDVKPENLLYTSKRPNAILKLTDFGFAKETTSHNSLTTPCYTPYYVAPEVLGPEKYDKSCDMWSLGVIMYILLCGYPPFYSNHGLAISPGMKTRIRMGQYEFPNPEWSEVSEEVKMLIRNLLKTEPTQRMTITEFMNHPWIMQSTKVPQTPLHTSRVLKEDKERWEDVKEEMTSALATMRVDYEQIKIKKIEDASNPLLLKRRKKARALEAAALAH", "format": "functional"}, "[13]": {"target": "MAP kinase-interacting serine/threonine-protein kinase 2 (Homo sapiens, UniProt Q9HBH9)", "sequence (Q9HBH9 whole entry)": "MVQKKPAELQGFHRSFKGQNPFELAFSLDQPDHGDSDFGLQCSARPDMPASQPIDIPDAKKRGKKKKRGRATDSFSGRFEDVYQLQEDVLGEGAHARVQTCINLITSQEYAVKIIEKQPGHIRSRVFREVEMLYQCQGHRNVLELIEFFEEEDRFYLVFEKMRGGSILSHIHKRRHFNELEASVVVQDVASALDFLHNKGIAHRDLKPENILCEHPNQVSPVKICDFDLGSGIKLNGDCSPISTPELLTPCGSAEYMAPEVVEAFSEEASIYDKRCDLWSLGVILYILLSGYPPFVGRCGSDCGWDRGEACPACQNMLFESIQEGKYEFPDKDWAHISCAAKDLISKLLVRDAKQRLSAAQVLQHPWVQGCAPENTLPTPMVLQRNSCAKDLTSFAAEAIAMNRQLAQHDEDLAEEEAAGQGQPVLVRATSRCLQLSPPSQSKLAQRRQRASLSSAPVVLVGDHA", "format": "functional"}, "[14]": {"target": "High affinity nerve growth factor receptor (Homo sapiens, UniProt P04629)", "format": "functional"}, "cells": {"experiment": "cells", "format": "functional"}, "Procathepsin L": {"target": "Procathepsin L (Homo sapiens, UniProt P07711)"}, "[15]": {"target": "T1, Mannose-6-phosphate isomerase (Homo sapiens, UniProt P34949)", "T1 sequence (P34949 whole entry)": "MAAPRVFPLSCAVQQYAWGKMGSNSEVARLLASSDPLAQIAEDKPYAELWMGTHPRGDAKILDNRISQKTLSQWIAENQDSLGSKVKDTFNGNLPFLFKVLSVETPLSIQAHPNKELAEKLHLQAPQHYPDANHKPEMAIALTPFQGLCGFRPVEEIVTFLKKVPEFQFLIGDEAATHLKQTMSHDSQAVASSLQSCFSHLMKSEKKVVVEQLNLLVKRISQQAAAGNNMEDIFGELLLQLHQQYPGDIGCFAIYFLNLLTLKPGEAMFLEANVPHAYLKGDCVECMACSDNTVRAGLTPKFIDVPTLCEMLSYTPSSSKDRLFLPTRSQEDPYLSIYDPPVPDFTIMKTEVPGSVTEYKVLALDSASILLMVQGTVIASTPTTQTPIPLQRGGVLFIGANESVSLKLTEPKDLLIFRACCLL", "experiment": "MPI inhibition at elevated mannose 6-phosphate – biochemical, fluorescence intensity, high mannose 6-phosphate, primary screen (AID 1220)"}, "[16]": {"experiment": "HEK-293T viability loss after treatment – luminescence, T-cell screen hits, cytotoxicity control for TCR NF-kB inhibitor project, dose response (AID 489026);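 note: cells exposed to compound about 14 hours before the viability readout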", "format": "functional, cell-based"}, "Cytochrome P450 2C9": {"target": "Cytochrome P450 2C9 (Homo sapiens, UniProt P11712)"}, "Large T antigen": {"target": "Large T antigen (Simian virus 40, UniProt P03070)", "format": "functional, Betapolyomavirus macacae"}, "[17]": {"target": "Induced myeloid leukemia cell differentiation protein Mcl-1 (Homo sapiens, UniProt Q07820)", "sequence (Q07820 whole entry)": "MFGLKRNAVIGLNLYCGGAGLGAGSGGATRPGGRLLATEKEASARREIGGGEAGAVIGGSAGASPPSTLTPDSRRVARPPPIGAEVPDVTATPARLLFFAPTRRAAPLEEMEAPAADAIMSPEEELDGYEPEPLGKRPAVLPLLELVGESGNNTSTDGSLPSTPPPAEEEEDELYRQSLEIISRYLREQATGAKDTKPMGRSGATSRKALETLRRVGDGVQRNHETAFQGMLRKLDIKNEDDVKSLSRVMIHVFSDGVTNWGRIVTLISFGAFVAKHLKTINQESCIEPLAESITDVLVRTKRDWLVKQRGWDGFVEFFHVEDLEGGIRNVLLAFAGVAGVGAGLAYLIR", "format": "functional"}, "[18]": {"target": "T2, RNA-binding protein pos-1 (Caenorhabditis elegans, UniProt G5EF15)", "T2 sequence (G5EF15 whole entry)": "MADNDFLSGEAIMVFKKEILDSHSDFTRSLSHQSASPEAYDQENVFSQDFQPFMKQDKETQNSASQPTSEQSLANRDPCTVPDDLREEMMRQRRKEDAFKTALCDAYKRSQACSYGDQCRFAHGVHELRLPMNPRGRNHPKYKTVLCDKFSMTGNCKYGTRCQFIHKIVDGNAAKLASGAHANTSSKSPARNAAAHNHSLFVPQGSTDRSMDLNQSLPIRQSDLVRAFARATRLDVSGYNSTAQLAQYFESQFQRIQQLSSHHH", "experiment": "disruptors of C. elegans POS-1 RNA interaction – biochemical, fluorescence polarization, dose response (AID 1964);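 note: purified POS-1 fused to maltose binding protein made in E. coli; potency of compounds blocking POS-1 binding to fluorescent RNA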"}, "[19]": {"target": "NACHT, LRR and PYD domains-containing protein 3 (Homo sapiens, UniProt Q96P20)", "sequence (Q96P20 whole entry, the tested form may be a part)": "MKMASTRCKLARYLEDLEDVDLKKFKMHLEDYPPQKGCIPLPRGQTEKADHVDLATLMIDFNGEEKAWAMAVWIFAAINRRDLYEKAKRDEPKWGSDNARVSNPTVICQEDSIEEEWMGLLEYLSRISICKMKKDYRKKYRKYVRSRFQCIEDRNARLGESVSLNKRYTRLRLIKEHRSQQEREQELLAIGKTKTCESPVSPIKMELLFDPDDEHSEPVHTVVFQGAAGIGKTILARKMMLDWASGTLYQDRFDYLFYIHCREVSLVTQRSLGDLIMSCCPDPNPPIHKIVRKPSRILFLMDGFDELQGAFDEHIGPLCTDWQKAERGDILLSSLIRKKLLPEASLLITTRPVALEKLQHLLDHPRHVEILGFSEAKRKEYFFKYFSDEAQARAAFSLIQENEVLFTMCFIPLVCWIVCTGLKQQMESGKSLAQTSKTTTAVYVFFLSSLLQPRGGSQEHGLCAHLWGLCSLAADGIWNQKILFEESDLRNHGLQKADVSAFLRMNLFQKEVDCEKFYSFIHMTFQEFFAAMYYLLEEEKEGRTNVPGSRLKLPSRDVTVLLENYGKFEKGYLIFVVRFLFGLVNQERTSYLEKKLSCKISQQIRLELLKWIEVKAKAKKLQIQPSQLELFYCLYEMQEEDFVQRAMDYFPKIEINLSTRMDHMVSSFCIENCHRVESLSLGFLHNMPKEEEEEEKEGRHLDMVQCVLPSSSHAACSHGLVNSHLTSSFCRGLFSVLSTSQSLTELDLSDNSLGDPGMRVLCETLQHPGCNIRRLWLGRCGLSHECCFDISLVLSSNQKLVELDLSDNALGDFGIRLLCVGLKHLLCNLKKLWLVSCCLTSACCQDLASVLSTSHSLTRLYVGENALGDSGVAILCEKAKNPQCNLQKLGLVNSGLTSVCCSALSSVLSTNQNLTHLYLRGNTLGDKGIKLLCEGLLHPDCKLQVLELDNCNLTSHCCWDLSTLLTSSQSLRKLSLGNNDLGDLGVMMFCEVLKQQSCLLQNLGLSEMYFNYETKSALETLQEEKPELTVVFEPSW", "experiment": "NALP3 inhibitors in yeast, dose response, luminescent (AID 488799)", "format": "functional"}, "Jurkat": {"test_system": "Jurkat", "experiment": "SAR Analysis of small molecule inhibitors of T-cell specific antigen receptor-induced NF-kB activation in a Jurkat cell line using a luminescence assay. [Related pubchem assays (depositor defined):AID435003, AID435012, AID465]", "format": "functional, cell-based", "settings": "Homo sapiens"}, "INS1": {"test_system": "INS1", "experiment": "INS-1E survival protection against cytokine death – cell-based, luminescence, retest, dose response (AID 449756);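 note: cell death triggered by IL-1 beta plus TNF-alpha plus IFN-gamma mixture; protective hits raise ATP signal compared with cytokine alone wells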", "format": "functional", "settings": "Rattus norvegicus"}, "HEK293": {"test_system": "HEK293", "experiment": "SAR Analysis of small molecule inhibitors of T-cell specific antigen receptor-induced NF-kB activation in a HEK-293T cell line using a luminescence assay. [Related pubchem assays (depositor defined):AID435003, AID435012, AID489026]", "format": "functional, cell-based", "settings": "Homo sapiens"}},
  "note": "Activity calls are given as the source filed them.",
  "data": [
    {"smiles": "Cc1cccc(NC(=O)Nc2ccc3c(c2)CCc2sc4ncnc(N)c4c2-3)c1", "values": [
      {"measurement": "Ki", "setting": "[1]", "value": "> 2 µM (inactive)"},
      {"measurement": "Ki", "setting": "[2]", "value": "> 7.94 µM (inactive)"},
      {"measurement": "Ki", "setting": "[3]", "value": "> 7.94 µM (inactive)"},
      {"measurement": "Ki", "setting": "[4]", "value": "> 2 µM (inactive)"},
      {"measurement": "Ki", "setting": "[5]", "value": "> 1.58 µM (inactive)"},
      {"measurement": "Ki", "setting": "[6]", "value": "> 6.31 µM (inactive)"},
      {"measurement": "Ki", "setting": "[7]", "value": "> 7.94 µM (inactive)"},
      {"measurement": "Ki", "setting": "[8]", "value": "> 2.51 µM (inactive)"},
      {"measurement": "Ki", "setting": "[9]", "value": "> 2.51 µM (inactive)"},
      {"measurement": "Ki", "setting": "[10]", "value": "> 1.58 µM (inactive)"},
      {"measurement": "Ki", "setting": "[11]", "value": "2.51 µM (active)"},
      {"measurement": "Ki", "setting": "SRSF protein kinase 1", "value": "3.16 µM (active)"},
      {"measurement": "Ki", "setting": "[12]", "value": "> 7.94 µM (inactive)"},
      {"measurement": "Ki", "setting": "[13]", "value": "0.0794 µM (active)"},
      {"measurement": "Ki", "setting": "[14]", "value": "1.26 µM (active)"}
    ]},
    {"smiles": "Cc1ccc(-n2sc3ccccc3c2=O)cc1", "values": [
      {"measurement": "IC50", "setting": "cells", "value": "22.4 µM (active)"},
      {"measurement": "IC50", "setting": "Procathepsin L", "value": "> 59.6 µM (not active)"},
      {"measurement": "IC50", "setting": "[15]", "value": "22 µM (active)"}
    ]},
    {"smiles": "CCC(=O)NC(c1ccc(C)cc1)c1ccc2cccnc2c1O", "note": "(configuration not stated)", "values": [
      {"measurement": "IC50", "setting": "[16]", "value": "> 80 µM (inactive)"}
    ]},
    {"smiles": "N/C(=N\\N=C/c1ccc(-c2ccc(O)c(C(=O)O)c2)o1)N[N+](=O)[O-]", "values": [
      {"measurement": "AC50", "setting": "Cytochrome P450 2C9", "value": "7.94 µM (inconclusive)"},
      {"measurement": "IC50", "setting": "Large T antigen", "value": "25.4 µM (active)"},
      {"measurement": "IC50", "setting": "[17]", "value": "3.86 µM (active)"},
      {"measurement": "EC50", "setting": "[18]", "value": "29.9 µM (active)"}
    ]},
    {"smiles": "CC(=O)N(/N=C1\\Sc2ccccc2C1=O)c1ccccc1C", "values": [
      {"measurement": "IC50", "setting": "[19]", "value": "8.34 µM (active)"}
    ]},
    {"smiles": "CCCC(=O)NC(c1ccc(Cl)cc1)c1ccc2cccnc2c1O", "note": "(configuration not stated)", "values": [
      {"measurement": "IC50", "setting": "Jurkat", "value": "4.13 µM (active)"},
      {"measurement": "AC50", "setting": "INS1", "value": "0.458 µM (active)"},
      {"measurement": "IC50", "setting": "HEK293", "value": "3.72 µM (active)"}
    ]}
  ]
}
